Broadly, the IC50 is the concentration at which inhibition is half-maximal.

Where two headings read alike, the source gives them in different places.

For one assay, the target named is T1, serotonin 1A receptor (Mus musculus, UniProt Q64264).
T1 construct: into the rectum of CD-1 (ICR) male mice (25-45 g); from tissue; host or cells: living CD-1 (ICR) male mice (in vivo)
T1 sequence (Q64264 1-421): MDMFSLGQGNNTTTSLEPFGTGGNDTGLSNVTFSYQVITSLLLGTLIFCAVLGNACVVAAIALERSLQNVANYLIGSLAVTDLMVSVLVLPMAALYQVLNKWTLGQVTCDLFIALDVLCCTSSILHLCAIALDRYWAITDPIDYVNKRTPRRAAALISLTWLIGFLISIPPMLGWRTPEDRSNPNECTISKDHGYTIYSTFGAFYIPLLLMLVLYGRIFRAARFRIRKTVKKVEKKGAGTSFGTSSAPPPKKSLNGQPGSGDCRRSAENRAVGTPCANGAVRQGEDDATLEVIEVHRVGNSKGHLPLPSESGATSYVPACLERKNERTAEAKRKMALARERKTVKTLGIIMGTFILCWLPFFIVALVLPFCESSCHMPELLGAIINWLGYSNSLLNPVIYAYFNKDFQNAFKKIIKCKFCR
The assay is described as follows: Antagonistic effect on serotonin 1A receptor agonist (8-OH-DPAT)-induced hypothermia in mouse. Format: in vivo. The conditions noted are these: CD-1 (ICR) male mice; inhibition of hypothermia by 8-OH-DPAT 0.5 mg/kg sc; test substance 15 minutes before agonist. How it is done: (1) A thermistor probe was inserted at a depth of approximately 2 cm into the rectum of CD-1 (ICR) male mice (25-45 g), so as to measure the body temperature thereof. Body temperature is decreased by subcutaneous administration of serotonin 1A receptor agonist (8-hydroxy-dipropylaminotetralin (8-OH-DPAT) 0;5 mg/kg. Since a serotonin 1A antagonist inhibits such action, the antagonistic effect of a test substance to a serotonin 1A receptor was evaluated using the inhibitory effect of the hypothermia as an index. The test results are shown in Table 2 indicated below. A test substance was administered 15 minutes before the administration of the serotonin 1A agonist. A serotonin 1A partial agonist alone decreases the body temperature, depending on the degree of the agonistic action thereof. In addition, it has a weak antagonistic effect on 8-OH-DPAT-induced hypothermia.

Another assay deals with T2, 5-HT1A receptor (Sus scrofa, UniProt A0A4X1UTF5).
T2 construct: Swine hippocampus was homogenized in a 50 mM Tris-Hcl buffer; from tissue; host or cells: swine hippocampus, membrane fraction
T2 sequence (A0A4X1UTF5 1-422): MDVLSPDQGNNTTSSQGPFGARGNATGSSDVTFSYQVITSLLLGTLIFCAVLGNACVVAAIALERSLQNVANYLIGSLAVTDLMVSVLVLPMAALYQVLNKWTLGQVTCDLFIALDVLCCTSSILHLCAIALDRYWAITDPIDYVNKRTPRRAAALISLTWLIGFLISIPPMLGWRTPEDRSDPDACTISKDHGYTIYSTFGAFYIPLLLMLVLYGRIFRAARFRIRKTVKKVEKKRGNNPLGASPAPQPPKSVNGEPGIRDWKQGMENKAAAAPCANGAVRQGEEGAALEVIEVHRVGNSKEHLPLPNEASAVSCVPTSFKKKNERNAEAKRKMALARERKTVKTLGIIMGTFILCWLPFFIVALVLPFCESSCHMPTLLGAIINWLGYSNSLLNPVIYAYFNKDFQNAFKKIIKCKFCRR
The assay is described as follows: Affinity for serotonin 1A receptor: inhibition of [3H]MPPF binding in swine hippocampal membrane fraction. Conditions: for IC50: swine hippocampal membrane, 37°C 30 min; for L/H ratio: low affinity IC50 divided by high affinity IC50, 1 or smaller = no intrinsic activity, 2 or greater = intrinsic activity. From the text:
(1) The affinity of a test substance for a 5-HT1A receptor was examined by an inhibition experiment, in which the inhibitory effect of the test substance against the binding of [^3H]-4-(2′-methoxy)phenyl-1-(2′-(N-2″-pyridinyl)-p-fluorobenzamido)ethyl-piperazine (MPPF) that selectively binds to the 5-HT1A receptor in a swine hippocampal membrane fraction was examined. The 5-HT1A receptor that is a G-protein binding receptor becomes a G-protein binding state with addition of MgCl2. In contrast, it becomes a G-protein non-binding state with addition of guanylylimido diphosphate (Gpp(NH)p). […] Thus, both the affinity of a test substance to the receptor that was in a state of not binding to the G-protein and the affinity of the test substance to the receptor that was in a state of binding to the G-protein were obtained. Then, the obtained values were compared to each other, so as to estimate the level of the intrinsic activity of the test substance. Theoretically, when the value (L/H) obtained by dividing the affinity of a test substance to the receptor that is in a low affinity state (IC50 value) by the affinity of a test substance to the receptor that is in a high affinity state (IC50 value) is 1 or less, the intrinsic activity thereof is zero. The greater this value, the higher the intrinsic activity that can be obtained.
Swine hippocampus was homogenized in a 50 mM Tris-Hcl buffer (pH 7.4; hereinafter referred to as buffer A) that had been cooled on ice. The suspension was centrifuged at 40,000×g for 15 minutes. The obtained pellet was suspended in buffer solution A, and the thus obtained solution was then centrifuged at 40,000×g for 15 minutes. The same operation was repeated 2 or 3 times. The finally obtained pellet was suspended in a buffer solution A in an amount 10 times the wet weight of the swine hippocampus, so as to obtain a membrane fraction. The obtained membrane fraction was stored at −80° C. until use.
A mixture (0.5 ml) used for incubation comprised an appropriate amount of the membrane fraction, a test substance with a desired concentration, MgCl2 (final concentration: 10 mM) or Gpp(NH)p (final concentration: 1 mM), [^3H]MPPF (final concentration: 0.5 nM), dimethyl sulfoxide (final concentration: 1% (v/v)), and a 50 mM Tris-Hcl buffer (pH 7.4). The reaction was initiated with addition of the membrane fraction, and the mixture was incubated at 37° C. for 30 minutes. After completion of the incubation, the mixture was subjected to vacuum filtration with a glass filter, using Cell Harvester. The filter was washed with buffer solution A that had been cooled on ice. Thereafter, radioactivity binding to the receptor was measured with a liquid scintillation counter. Non-specific binding was defined as binding detected in the presence of 10 μM WAY-100,635.

Where [1] appears, read: [3H]MPPF 0.5 nM, receptor in high affinity (G-protein binding, MgCl2 10 mM) state, read-out: High affinity IC50.
Setting [2] is: [3H]MPPF 0.5 nM, receptor in low affinity (G-protein non-binding, Gpp(NH)p 1 mM) state, read-out: Low affinity IC50.

Consider `COc1cc2c(cc1CCN1CCC(n3ccc4ccc(C(N)=O)cc43)CC1)N(C(C)=O)CCC2` [Compound 52, 1-{1-[2-(1-acetyl-6-methoxy-1,2,3,4-tetrahydroquinolin-7-yl)ethyl]piperidin-4-yl}-1H-indole-6-carboxamide], for which the ED50 on serotonin 1A receptor was 0.5 mg/kg, sc. Further, the IC50 on 5-HT1A receptor (setting [1]) stood at 0.22 nM; on 5-HT1A receptor (setting [2]) it was 0.2 nM. The L/H ratio at 5-HT1A receptor was determined as 0.9.

On to `COc1cc2c(cc1CCN1CCC(n3ccc4ccc(C(N)=O)cc43)CC1)N(C)C(=O)CC2` [Compound 57, 1-{1-[2-(6-methoxy-1-methyl-2-oxo-1,2,3,4-tetrahydroquinolin-7-yl)ethyl]piperidin-4-yl}-1H-indole-6-carboxamide], for which the ED50 on serotonin 1A receptor is 0.1 mg/kg, sc. Further, the IC50 on 5-HT1A receptor (setting [1]) stood at 0.18 nM; on 5-HT1A receptor (setting [2]) it was 0.24 nM. Also, on 5-HT1A receptor, the L/H ratio is given as 1.3.

Take `COc1cc2nc(C)sc2cc1CCN1CCC(n2ccc3ccc(C(N)=O)cc32)CC1` [Compound 28, 1-{1-[2-(5-methoxy-2-methylbenzothiazol-6-yl)ethyl]piperidin-4-yl}-1H-indole-6-carboxamide]: the ED50 at serotonin 1A receptor is recorded as 0.02 mg/kg, sc. Besides, the IC50 turned out to be 0.14 nM at 5-HT1A receptor (setting [1]) and 0.19 nM at 5-HT1A receptor (setting [2]). The L/H ratio on 5-HT1A receptor amounted to 1.4.

For the compound `COc1ccc2c(c1CCN1CCC(n3ccc4ccc(C(N)=O)cc43)CC1)CCC2=O` [Compound 25, 1-{1-[2-(5-methoxy-1-oxoindan-4-yl)ethyl]piperidin-4-yl}-1H-indole-6-carboxamide], the ED50 at serotonin 1A receptor is given as 0.1 mg/kg, sc. The IC50 worked out at 0.18 nM on 5-HT1A receptor (setting [1]) and 0.16 nM at 5-HT1A receptor (setting [2]). In addition, the L/H ratio on 5-HT1A receptor is 0.9.

As to `COc1ccc2oc(C)nc2c1CCN1CCC(n2ccc3ccc(C(N)=O)cc32)CC1` [Compound 7, 1-{1-[2-(5-methoxy-2-methylbenzoxazol-4-yl)ethyl]piperidin-4-yl)-1H-indole-6-carboxamide], the ED50 on serotonin 1A receptor is 0.38 mg/kg, sc. The concentration for half-maximal inhibition (IC50) is 0.41 nM at 5-HT1A receptor (setting [1]) and 0.3 nM at 5-HT1A receptor (setting [2]). Moreover, the L/H ratio on 5-HT1A receptor came out at 0.7.

For the compound `COc1cc2nc(C)oc2cc1CCN1CCC(n2ccc3ccc(C(N)=O)cc32)CC1` [Compound 8, 1-{1-[2-(5-methoxy-2-methylbenzoxazol-6-yl)ethyl]piperidin-4-yl}-1H-indole-6-carboxamide], the ED50 on serotonin 1A receptor is reported as 0.07 mg/kg, sc. The half-inhibitory concentration (IC50) is 0.22 nM on 5-HT1A receptor (setting [1]) and 0.23 nM at 5-HT1A receptor (setting [2]). Besides, on 5-HT1A receptor, the L/H ratio was 1.

Consider `COc1ccc2ccccc2c1CCN1CCC(n2ccc3ccc(C(N)=O)cc32)CC1` [Compound 44, 1-{1-[2-(2-methoxynaphthalen-1-yl)ethyl]piperidin-4-yl}-1H-indole-6-carboxamide], for which the ED50 on serotonin 1A receptor is given as 0.41 mg/kg, sc. In addition, the IC50 is 0.4 nM at 5-HT1A receptor (setting [1]) and 0.47 nM on 5-HT1A receptor (setting [2]). Besides, at 5-HT1A receptor, the L/H ratio turned out to be 1.2.

For `COc1ccc2c(c1CCN1CCC(n3ccc4ccc(C(N)=O)cc43)CC1)CCC2O` (centres unmarked) [Compound 49, 1-{1-[2-(1-hydroxy-5-methoxyindan-4-yl)ethyl]piperidin-4-yl}-1H-indole-6-carboxamide], the ED50 on serotonin 1A receptor is on record as 0.28 mg/kg, sc. Besides, the IC50 amounted to 0.22 nM on 5-HT1A receptor (setting [1]) and 0.27 nM on 5-HT1A receptor (setting [2]). Besides, the L/H ratio at 5-HT1A receptor was found to be 1.2.

Turning to `COc1ccc2c(c1CCN1CCC(n3ccc4ccc(C(N)=O)cc43)CC1)OCCC2O` (centres unmarked) [Compound 46, 1-{1-[2-(4-hydroxy-7-methoxychroman-8-yl)ethyl]piperidin-4-yl}-1H-indole-6-carboxamide], on serotonin 1A receptor, the ED50 was 0.3 mg/kg, sc. Further, the concentration for half-maximal inhibition (IC50) on 5-HT1A receptor (setting [1]) is 0.24 nM; on 5-HT1A receptor (setting [2]), 0.33 nM. The L/H ratio on 5-HT1A receptor was 1.4.

For `CCn1c(=O)oc2cc(OC)c(CCN3CCC(n4ccc5ccc(C(N)=O)cc54)CC3)cc21` [Compound 60, 1-{1-[2-(3-ethyl-6-methoxy-2-oxo-2,3-dihydrobenzoxazol-5-yl)ethyl]piperidin-4-yl}-1H-indole-6-carboxamide], the ED50 on serotonin 1A receptor is 0.52 mg/kg, sc. Besides, the figures for the IC50 at 5-HT1A receptor (setting [1]) and on 5-HT1A receptor (setting [2]) were 0.28 nM and 0.24 nM, respectively. On 5-HT1A receptor, the L/H ratio is reported as 0.9.

With `CCc1nc2ccc(OC)c(CCN3CCC(n4ccc5ccc(C(N)=O)cc54)CC3)c2o1` [Compound 5], at serotonin 1A receptor, the ED50 is recorded as 0.24 mg/kg, sc. The 50% inhibitory concentration (IC50) on 5-HT1A receptor (setting [1]) turned out to be 0.57 nM; on 5-HT1A receptor (setting [2]), 0.45 nM. Moreover, the L/H ratio at 5-HT1A receptor is 0.8.

Regarding `COc1cc2c(cc1CCN1CCC(n3ccc4ccc(C(N)=O)cc43)CC1)C(=O)N(C)CCO2` [Compound 9, 1-{1-[2-(8-methoxy-4-methyl-5-oxo-2,3,4,5-tetrahydrobenzo[f][1,4]oxazepin-7-yl)ethyl]piperidin-4-yl}-1H-indole-6-carboxamide], at serotonin 1A receptor, the ED50 is listed as 0.3 mg/kg, sc. The values for the 50% inhibitory concentration (IC50) on 5-HT1A receptor (setting [1]) and on 5-HT1A receptor (setting [2]) were 0.17 nM and 0.13 nM, respectively. The L/H ratio on 5-HT1A receptor turned out to be 0.8.

`COc1cc2cccnc2cc1CCN1CCC(n2ccc3ccc(C(N)=O)cc32)CC1` [Compound 51, 1-{1-[2-(6-methoxyquinolin-7-yl)ethyl]piperidin-4-yl}-1H-indole-6-carboxamide]: on serotonin 1A receptor, the ED50 is on record as 0.66 mg/kg, sc. Also, the IC50 is 0.18 nM at 5-HT1A receptor (High affinity IC50, [3H]MPPF 0.5 nM, receptor in high affinity (G-protein binding, MgCl2 10 mM) state) and 0.17 nM on 5-HT1A receptor (Low affinity IC50, [3H]MPPF 0.5 nM, receptor in low affinity (G-protein non-binding, Gpp(NH)p 1 mM) state). Further, the L/H ratio at 5-HT1A receptor amounted to 0.9.

On to `COc1ccc2c(c1CCN1CCC(n3ccc4ccc(C(N)=O)cc43)CC1)CCCN2C(C)=O` [Compound 54, 1-{1-[2-(1-acetyl-6-methoxy-1,2,3,4-tetrahydroquinolin-5-yl)ethyl]piperidin-4-yl}-1H-indole-6-carboxamide], for which the ED50 on serotonin 1A receptor is 0.84 mg/kg, sc. In addition, the values for the 50% inhibitory concentration (IC50) on 5-HT1A receptor (setting [1]) and at 5-HT1A receptor (setting [2]) were 0.18 nM and 0.13 nM, respectively. Moreover, at 5-HT1A receptor, the L/H ratio is reported as 0.7.

Source of the values: patent publication US20050256103A1, “Indole derivative having piperidine ring” (Eisai Co., Ltd., priority 2004, published 2005).
